Measurements: ChEMBL document CHEMBL3797185, “Exploring the 2- and 5-positions of the pyrazolo[4,3-d]pyrimidin-7-amino scaffold to target human A1 and A2A adenosine receptors” (Bioorg Med Chem, 2016)
pIC50, pKi: −log10 of the molar value.

What was measured:
[1] = biological target: T1, Adenosine receptor A2b (Homo sapiens) (UniProt P29275); experiment: Antagonist activity at human adenosine A2B receptor expressed in CHO cell membranes assessed as inhibition of NECA-stimulated cAMP level at 1 uM preincubated for 10 mins followed by NECA stimulation by scintillation counting method in presence of [3H]-cyclic AMP; format: functional
T1 sequence (whole entry): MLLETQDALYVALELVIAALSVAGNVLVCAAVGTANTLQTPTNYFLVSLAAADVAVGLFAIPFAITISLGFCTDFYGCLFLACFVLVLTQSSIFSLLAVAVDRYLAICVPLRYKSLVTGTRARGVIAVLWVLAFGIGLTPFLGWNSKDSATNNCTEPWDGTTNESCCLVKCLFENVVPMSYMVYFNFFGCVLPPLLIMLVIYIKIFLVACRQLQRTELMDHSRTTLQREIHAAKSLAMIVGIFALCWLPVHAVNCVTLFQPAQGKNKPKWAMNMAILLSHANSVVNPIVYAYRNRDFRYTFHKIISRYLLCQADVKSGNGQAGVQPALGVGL

[2] = biological target: T2, Adenosine receptor A1 (Homo sapiens) (UniProt P30542); experiment: Displacement of [3H]-DPCPX from human adenosine A1 receptor expressed in CHO cell membranes at 1 uM after 120 mins by scintillation counting method relative to control
T2 sequence (whole entry): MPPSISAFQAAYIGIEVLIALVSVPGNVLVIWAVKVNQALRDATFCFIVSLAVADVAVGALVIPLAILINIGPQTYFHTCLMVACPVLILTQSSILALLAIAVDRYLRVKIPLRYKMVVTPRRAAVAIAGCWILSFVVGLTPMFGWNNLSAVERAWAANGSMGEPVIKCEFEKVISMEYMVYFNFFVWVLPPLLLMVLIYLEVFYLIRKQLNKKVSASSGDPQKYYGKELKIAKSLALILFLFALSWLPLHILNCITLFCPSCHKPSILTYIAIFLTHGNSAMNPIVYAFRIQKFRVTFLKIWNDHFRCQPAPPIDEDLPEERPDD

Adenosine receptor A3 = biological target: T3, Adenosine receptor A3 (Homo sapiens, UniProt P0DMS8); experiment: Displacement of [125I]-AB-MECA from human adenosine A3 receptor expressed in CHO cell membranes after 60 mins by scintillation counting method
T3 sequence (P0DMS8 whole entry): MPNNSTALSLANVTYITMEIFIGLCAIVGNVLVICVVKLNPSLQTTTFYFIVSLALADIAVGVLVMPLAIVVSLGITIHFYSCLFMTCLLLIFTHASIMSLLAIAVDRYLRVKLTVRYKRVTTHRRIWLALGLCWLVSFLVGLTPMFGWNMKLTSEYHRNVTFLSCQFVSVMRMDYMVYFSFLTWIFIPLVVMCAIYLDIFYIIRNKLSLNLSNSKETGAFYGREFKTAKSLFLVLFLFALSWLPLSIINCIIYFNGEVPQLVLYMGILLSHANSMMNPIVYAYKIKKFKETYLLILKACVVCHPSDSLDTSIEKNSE

Adenosine receptor A2a [3] = biological target: T4, Adenosine receptor A2a (Homo sapiens, UniProt P29274); experiment: Displacement of [3H]-ZM241385 from human adenosine A2A receptor expressed in CHO cell membranes at 1 uM after 60 mins by scintillation counting method relative to control
T4 sequence (P29274 whole entry): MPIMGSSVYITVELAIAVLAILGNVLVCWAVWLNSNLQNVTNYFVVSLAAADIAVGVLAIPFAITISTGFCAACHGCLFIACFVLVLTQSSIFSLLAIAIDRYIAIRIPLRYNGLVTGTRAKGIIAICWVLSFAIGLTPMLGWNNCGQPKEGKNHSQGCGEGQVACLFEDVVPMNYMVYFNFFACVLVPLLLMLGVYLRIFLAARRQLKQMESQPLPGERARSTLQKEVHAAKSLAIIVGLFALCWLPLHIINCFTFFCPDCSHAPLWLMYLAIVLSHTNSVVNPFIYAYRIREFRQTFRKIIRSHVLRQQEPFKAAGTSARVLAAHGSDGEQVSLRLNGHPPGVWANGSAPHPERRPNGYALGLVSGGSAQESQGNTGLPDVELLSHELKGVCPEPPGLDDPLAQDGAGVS

Adenosine receptor A2b = biological target: T5, Adenosine receptor A2b (Homo sapiens, UniProt P29275); experiment: Antagonist activity at human adenosine A2B receptor expressed in CHO cell membranes assessed as inhibition of NECA-stimulated cAMP level preincubated for 10 mins followed by NECA stimulation by scintillation counting method in presence of [3H]-cyclic AMP; format: functional
T5 sequence (P29275 whole entry): T1 sequence (whole entry)

Adenosine receptor A1 [4] = biological target: T6, Adenosine receptor A1 (Homo sapiens, UniProt P30542); experiment: Antagonist activity at human adenosine A1 receptor expressed in CHO cell membranes assessed as suppression of CCPA-mediated inhibition of cAMP level by scintillation counting method in presence of [3H]-cyclic AMP; format: functional
T6 sequence (P30542 whole entry): T2 sequence (whole entry)

Homo sapiens = species on record: Homo sapiens; experiment: Selectivity ratio of Ki for human adenosine A1 receptor to Ki for human adenosine A2A receptor
Adenosine receptor A2a [5] = biological target: T4, Adenosine receptor A2a; experiment: Antagonist activity at human adenosine A2A receptor expressed in CHO cell membranes assessed as inhibition of NECA-stimulated cAMP level preincubated for 10 mins followed by NECA stimulation by scintillation counting method in presence of [3H]-cyclic AMP; format: functional
Adenosine receptor A2a [6] = biological target: T4, Adenosine receptor A2a; experiment: Displacement of [3H]-ZM241385 from human adenosine A2A receptor expressed in CHO cell membranes after 60 mins by scintillation counting method
Adenosine receptor A1 [7] = biological target: T6, Adenosine receptor A1; experiment: Displacement of [3H]-DPCPX from human adenosine A1 receptor expressed in CHO cell membranes after 120 mins by scintillation counting method
[8] = biological target: T7, Adenosine receptor A3 (Homo sapiens) (UniProt P0DMS8); experiment: Displacement of [125I]-AB-MECA from human adenosine A3 receptor expressed in CHO cell membranes at 1 uM after 60 mins by scintillation counting method relative to control
T7 sequence (whole entry): T3 sequence (P0DMS8 whole entry)

SMILES: COc1ccccc1-n1cc2nc(-c3cccs3)nc(N)c2n1
- inhibition [1]: 1%
- inhibition [2]: 24%
- pKi (Adenosine receptor A3): 6.82
- inhibition (Adenosine receptor A2a [3]): 27%

SMILES: COc1ccccc1Cn1cc2nc(-c3ccco3)nc(N)c2n1
- pIC50 (Adenosine receptor A2b): 6.29
- pIC50 (Adenosine receptor A1 [4]): 6.97
- Ratio Ki (Homo sapiens): 3
- pKi (Adenosine receptor A3): 6.71
- pIC50 (Adenosine receptor A2a [5]): 8.21
- pKi (Adenosine receptor A2a [6]): 8.27
- pKi (Adenosine receptor A1 [7]): 7.01

SMILES: COc1ccccc1-n1cc2nc(CCCc3ccccc3)nc(N)c2n1
- inhibition [1]: 21%
- inhibition [8]: 6%
- pKi (Adenosine receptor A2a [6]): 6.19
- pKi (Adenosine receptor A1 [7]): 7.31

SMILES: Nc1nc(CCCc2ccccc2)nc2cn(-c3ccccc3O)nc12
- inhibition [1]: 5%
- inhibition [8]: 5%
- pKi (Adenosine receptor A2a [6]): 6.62
- pKi (Adenosine receptor A1 [7]): 7.77

SMILES: Cc1ccc(-c2nc(N)c3nn(Cc4ccccc4F)cc3n2)o1
- pIC50 (Adenosine receptor A2b): 6.45
- Ratio Ki (Homo sapiens): 3
- pKi (Adenosine receptor A3): 6.30
- pKi (Adenosine receptor A2a [6]): 7.24
- pKi (Adenosine receptor A1 [7]): 6.51

SMILES: Nc1nc(-c2ccco2)nc2cn(-c3ccccc3O)nc12
- inhibition [1]: 42%
- inhibition [8]: 36%
- pKi (Adenosine receptor A2a [6]): 7.05
- pKi (Adenosine receptor A1 [7]): 6.43

SMILES: Cc1ccc(-c2nc(N)c3nn(Cc4ccccc4Cl)cc3n2)o1
- pIC50 (Adenosine receptor A2b): 6.82
- Ratio Ki (Homo sapiens): 3
- pKi (Adenosine receptor A3): 7.15
- pKi (Adenosine receptor A2a [6]): 8.21
- pKi (Adenosine receptor A1 [7]): 7.22

SMILES: Cc1ccc(-c2nc(N)c3nn(Cc4ccccc4O)cc3n2)o1
- pIC50 (Adenosine receptor A2b): 6.40
- Ratio Ki (Homo sapiens): 3
- pKi (Adenosine receptor A3): 6.91
- pKi (Adenosine receptor A2a [6]): 7.42
- pKi (Adenosine receptor A1 [7]): 6.95

SMILES: Cc1ccc(-c2nc(N)c3nn(-c4ccccc4)cc3n2)o1
- inhibition [1]: 32%
- pKi (Adenosine receptor A3): 6.83
- pKi (Adenosine receptor A2a [6]): 7.00
- pKi (Adenosine receptor A1 [7]): 7.38

SMILES: Nc1nc(-c2ccco2)nc2cn(Cc3ccccc3O)nc12
- pIC50 (Adenosine receptor A2b): 6.95
- Ratio Ki (Homo sapiens): 3
- pKi (Adenosine receptor A3): 6.04
- pKi (Adenosine receptor A2a [6]): 7.77
- pKi (Adenosine receptor A1 [7]): 6.62

SMILES: Nc1nc(-c2ccco2)nc2cn(Cc3ccccc3)nc12
- inhibition [1]: 37%
- inhibition [2]: 32%
- inhibition [8]: 2%
- pKi (Adenosine receptor A2a [6]): 6.49

SMILES: Cn1cc2nc(Cc3ccccc3)nc(N)c2n1
- inhibition [1]: 20%
- inhibition [2]: 9%
- inhibition (Adenosine receptor A2a [3]): 1%
- inhibition [8]: 1%

SMILES: Cc1nc(N)c2nn(-c3ccccc3F)cc2n1
- inhibition [1]: 8%
- inhibition (Adenosine receptor A2a [3]): 23%
- inhibition [8]: 8%
- pKi (Adenosine receptor A1 [7]): 6.39

SMILES: Nc1nc(CCCc2ccccc2)nc2cn(-c3ccccc3F)nc12
- inhibition [1]: 1%
- inhibition [2]: 25%
- pKi (Adenosine receptor A3): 6.79
- inhibition (Adenosine receptor A2a [3]): 43%

SMILES: Nc1nc(-c2cccs2)nc2cn(-c3ccccc3O)nc12
- inhibition [1]: 28%
- pKi (Adenosine receptor A3): 6.68
- pKi (Adenosine receptor A2a [6]): 6.39
- pKi (Adenosine receptor A1 [7]): 6.80

SMILES: Cc1nc(N)c2nn(CCc3ccccc3)cc2n1
- inhibition [1]: 3%
- inhibition [2]: 10%
- inhibition (Adenosine receptor A2a [3]): 12%
- inhibition [8]: 3%

SMILES: Cc1ccc(-c2nc(N)c3nn(Cc4ccccc4)cc3n2)o1
- pIC50 (Adenosine receptor A1 [4]): 6.82
- inhibition [1]: 20%
- Ratio Ki (Homo sapiens): 15
- pKi (Adenosine receptor A3): 6.57
- pIC50 (Adenosine receptor A2a [5]): 7.96
- pKi (Adenosine receptor A2a [6]): 8.03
- pKi (Adenosine receptor A1 [7]): 6.87

SMILES: Nc1nc(Cc2ccccc2)nc2cn(-c3ccccc3O)nc12
- inhibition [1]: 1%
- inhibition (Adenosine receptor A2a [3]): 21%
- inhibition [8]: 19%
- pKi (Adenosine receptor A1 [7]): 7.28

SMILES: Nc1nc(-c2ccco2)nc2cn(CCc3ccccc3)nc12
- inhibition [1]: 3%
- inhibition [2]: 12%
- inhibition (Adenosine receptor A2a [3]): 33%
- inhibition [8]: 4%

SMILES: Cc1nc(N)c2nn(Cc3ccccc3)cc2n1
- inhibition [1]: 1%
- inhibition [2]: 1%
- inhibition (Adenosine receptor A2a [3]): 1%
- inhibition [8]: 1%

SMILES: COc1ccccc1-n1cc2nc(-c3ccc(C)o3)nc(N)c2n1
- inhibition [1]: 1%
- inhibition [2]: 1%
- pKi (Adenosine receptor A3): 6.53
- pKi (Adenosine receptor A2a [6]): 6.29

SMILES: COc1ccccc1-n1cc2nc(Cc3ccccc3)nc(N)c2n1
- inhibition [1]: 1%
- pKi (Adenosine receptor A3): 6.39
- inhibition (Adenosine receptor A2a [3]): 34%
- pKi (Adenosine receptor A1 [7]): 6.99

SMILES: COc1cccc(Cn2cc3nc(-c4ccc(C)o4)nc(N)c3n2)c1
- pIC50 (Adenosine receptor A2b): 6.53
- pIC50 (Adenosine receptor A1 [4]): 6.87
- Ratio Ki (Homo sapiens): 22
- pKi (Adenosine receptor A3): 7.06
- pIC50 (Adenosine receptor A2a [5]): 8.19
- pKi (Adenosine receptor A2a [6]): 8.28
- pKi (Adenosine receptor A1 [7]): 6.92

SMILES: Cn1cc2nc(CCCc3ccccc3)nc(N)c2n1
- inhibition [1]: 2%
- inhibition [2]: 36%
- inhibition (Adenosine receptor A2a [3]): 1%
- inhibition [8]: 30%

SMILES: Cc1ccc(-c2nc(N)c3nn(Cc4cccc(F)c4)cc3n2)o1
- pIC50 (Adenosine receptor A2b): 6.38
- Ratio Ki (Homo sapiens): 3
- pKi (Adenosine receptor A3): 6.37
- pKi (Adenosine receptor A2a [6]): 7.29
- pKi (Adenosine receptor A1 [7]): 6.60

SMILES: Cc1ccc(-c2nc(N)c3nn(-c4ccccc4O)cc3n2)o1
- inhibition [1]: 1%
- inhibition [2]: 1%
- pKi (Adenosine receptor A3): 6.43
- pKi (Adenosine receptor A2a [6]): 6.83

SMILES: COc1ccccc1-n1cc2nc(-c3ccco3)nc(N)c2n1
- inhibition [1]: 12%
- inhibition [2]: 31%
- inhibition [8]: 37%
- pKi (Adenosine receptor A2a [6]): 6.44

SMILES: Cc1ccc(-c2nc(N)c3nn(Cc4cccc(O)c4)cc3n2)o1
- pIC50 (Adenosine receptor A2b): 6.20
- Ratio Ki (Homo sapiens): 3
- pKi (Adenosine receptor A3): 6.65
- pKi (Adenosine receptor A2a [6]): 7.85
- pKi (Adenosine receptor A1 [7]): 7.19

SMILES: COc1ccccc1Cn1cc2nc(-c3ccc(C)o3)nc(N)c2n1
- pIC50 (Adenosine receptor A1 [4]): 7.68
- inhibition [1]: 30%
- Ratio Ki (Homo sapiens): 3
- pKi (Adenosine receptor A3): 7.09
- pIC50 (Adenosine receptor A2a [5]): 8.36
- pKi (Adenosine receptor A2a [6]): 8.44
- pKi (Adenosine receptor A1 [7]): 7.74

SMILES: Nc1nc(-c2ccco2)nc2cn(-c3ccccc3)nc12
- inhibition [1]: 1%
- inhibition [8]: 39%
- pKi (Adenosine receptor A2a [6]): 6.71
- pKi (Adenosine receptor A1 [7]): 6.69

SMILES: Nc1nc(Cc2ccccc2)nc2cn(Cc3ccccc3)nc12
- inhibition [1]: 1%
- inhibition [2]: 1%
- inhibition (Adenosine receptor A2a [3]): 1%
- inhibition [8]: 15%
